According to patent US6914045B2, “Glycopeptide antibiotics” (Wyeth Holdings Corporation, priority 2001, dated 2005):
Values after ≈ are worked out from the molar mass of the structure shown.

Experiments:
Experiment in all cases: in vitro antibacterial evaluation, MIC by broth dilution
Type in all cases: cell-based
Streptococcus sp. = settings: broth dilution, 18 hours at 35° C.; for MIC Streptococcus pneumoniae (ATCC 6301): strain ATCC 6301; for MIC Streptococcus pneumoniae (GC 1894): strain GC 1894; for MIC Streptococcus pyogenes (GC 4563): strain GC 4563; for MIC Streptococcus agalactiae (GC 4564): strain GC 4564; for MIC Streptococcus pneumoniae (GC 4565): strain GC 4565
Outline: (§1)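 Following National Committee for Clinical Laboratory Standards recommendations (M7-A2), susceptibility was measured by dilution in Muller-Hinton II […]. Bacteria were seeded at 5×10^5 CFU/mL against compound concentrations from 64 down to 0.06 μg/mL.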

Enterococcus sp. = settings: broth dilution, 18 hours at 35° C.; for MIC Enterococcus faecalis (ATCC 29212): strain ATCC 29212; for MIC Enterococcus faecalis (GC 2242): strain GC 2242; for MIC Enterococcus faecium (GC 2243): strain GC 2243; for MIC Enterococcus faecalis (GC 2691): strain GC 2691; for MIC Enterococcus faecalis (GC 3059): strain GC 3059; for MIC Enterococcus faecalis (GC 4552): strain GC 4552; for MIC Enterococcus faecalis (GC 4553): strain GC 4553; for MIC Enterococcus faecalis (GC 4554): strain GC 4554; for MIC Enterococcus faecium (GC 4556): strain GC 4556; for MIC Enterococcus faecium (GC 4557): strain GC 4557; for MIC Enterococcus avium (GC 4558): strain GC 4558; for MIC Enterococcus faecalis (GC 6189): strain GC 6189
Outline: as §1

Staphylococcus sp. = settings: broth dilution, 18 hours at 35° C.; for MIC Staphylococcus aureus (ATCC 29213): strain ATCC 29213; for MIC Staphylococcus aureus (GC 1131): strain GC 1131; for MIC Staphylococcus aureus (GC 3051): strain GC 3051; for MIC Staphylococcus aureus (GC 3053): strain GC 3053; for MIC Staphylococcus aureus (GC 4541): strain GC 4541; for MIC Staphylococcus aureus (GC 4542): strain GC 4542; for MIC Staphylococcus aureus-SMITH (GC 4543): strain GC 4543; for MIC Staphylococcus aureus (GC 4544): strain GC 4544; for MIC Staphylococcus aureus (GC 4545): strain GC 4545; for MIC Staphylococcus haemolyticus (GC 4546): strain GC 4546; for MIC Coagulase Negative Staphylococcus (GC 4547): strain GC 4547; for MIC Coagulase Negative Staphylococcus (GC 4548): strain GC 4548; for MIC Coagulase Negative Staphylococcus (GC 4549): strain GC 4549; for MIC Coagulase Negative Staphylococcus (GC 4551): strain GC 4551
Outline: as §1

Escherichia coli = settings: broth dilution, 18 hours at 35° C.; for MIC Escherichia coli (ATCC 25922): strain ATCC 25922; for MIC Escherichia coli (GC 4559): strain GC 4559; for MIC Escherichia coli (GC 4560): strain GC 4560
Outline: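 Broth dilution in Muller-Hinton II medium per NCCLS standard M7-A2, with an inoculum of 5×10^5 CFU/mL and antibiotic tested over 64-0.06 μg/mL. MIC was taken as the lowest concentration inhibiting visible growth.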

Row | SMILES | MIC Streptococcus pneumoniae (ATCC 6301) (Streptococcus sp.) [µg/mL] | MIC Streptococcus pneumoniae (GC 1894) (Streptococcus sp.) [µg/mL] | MIC Streptococcus pyogenes (GC 4563) (Streptococcus sp.) [µg/mL] | MIC Streptococcus agalactiae (GC 4564) (Streptococcus sp.) [µg/mL] | MIC Streptococcus pneumoniae (GC 4565) (Streptococcus sp.) [µg/mL] | MIC Enterococcus faecalis (ATCC 29212) (Enterococcus sp.) [µg/mL] | MIC Enterococcus faecalis (GC 2242) (Enterococcus sp.) [µg/mL] | MIC Enterococcus faecium (GC 2243) (Enterococcus sp.) [µg/mL] | MIC Enterococcus faecalis (GC 2691) (Enterococcus sp.) [µg/mL] | MIC Enterococcus faecalis (GC 3059) (Enterococcus sp.) [µg/mL] | MIC Enterococcus faecalis (GC 4552) (Enterococcus sp.) [µg/mL] | MIC Enterococcus faecalis (GC 4553) (Enterococcus sp.) [µg/mL] | MIC Enterococcus faecalis (GC 4554) (Enterococcus sp.) [µg/mL] | MIC Enterococcus faecium (GC 4556) (Enterococcus sp.) [µg/mL] | MIC Enterococcus faecium (GC 4557) (Enterococcus sp.) [µg/mL] | MIC Enterococcus avium (GC 4558) (Enterococcus sp.) [µg/mL] | MIC Enterococcus faecalis (GC 6189) (Enterococcus sp.) [µg/mL] | MIC Staphylococcus aureus (ATCC 29213) (Staphylococcus sp.) [µg/mL] | MIC Staphylococcus aureus (GC 1131) (Staphylococcus sp.) [µg/mL] | MIC Staphylococcus aureus (GC 3051) (Staphylococcus sp.) [µg/mL] | other results
1 | CC(c1ccccc1)C1NC(=O)CNC(=O)C(CO)NC(=O)C(C(O)C2CNC(=N)N2C2OC(CO)C(O)C(O)C2O)NC(=O)C(C(O)C2CNC(=N)N2)NC(=O)C(Cc2ccc3oc(SCC(=O)c4ccccc4)nc3c2)NC1=O (stereo not shown) [Example 48] | 16 (≈ 14 µM) | 8 (≈ 6.98 µM) | 8 (≈ 6.98 µM) | 16 (≈ 14 µM) | 32 (≈ 27.9 µM) | 64 (≈ 55.8 µM) | 64 (≈ 55.8 µM) | 16 (≈ 14 µM) | 64 (≈ 55.8 µM) | 64 (≈ 55.8 µM) | 64 (≈ 55.8 µM) | 16 (≈ 14 µM) | 64 (≈ 55.8 µM) | 64 (≈ 55.8 µM) | 4 (≈ 3.49 µM) | 8 (≈ 6.98 µM) | 64 (≈ 55.8 µM) | 32 (≈ 27.9 µM) | 16 (≈ 14 µM) | 16 (≈ 14 µM) | MIC Staphylococcus aureus (GC 3053) (Staphylococcus sp.): 16 µg/mL (≈ 14 µM); MIC Staphylococcus aureus (GC 4541) (Staphylococcus sp.): 16 µg/mL (≈ 14 µM); MIC Staphylococcus aureus (GC 4542) (Staphylococcus sp.): 16 µg/mL (≈ 14 µM); MIC Staphylococcus aureus-SMITH (GC 4543) (Staphylococcus sp.): 16 µg/mL (≈ 14 µM); MIC Staphylococcus aureus (GC 4544) (Staphylococcus sp.): 16 µg/mL (≈ 14 µM); MIC Staphylococcus aureus (GC 4545) (Staphylococcus sp.): 16 µg/mL (≈ 14 µM); MIC Staphylococcus haemolyticus (GC 4546) (Staphylococcus sp.): 8 µg/mL (≈ 6.98 µM); MIC Coagulase Negative Staphylococcus (GC 4547) (Staphylococcus sp.): 4 µg/mL (≈ 3.49 µM); MIC Coagulase Negative Staphylococcus (GC 4548) (Staphylococcus sp.): 8 µg/mL (≈ 6.98 µM); MIC Coagulase Negative Staphylococcus (GC 4549) (Staphylococcus sp.): 4 µg/mL (≈ 3.49 µM); MIC Coagulase Negative Staphylococcus (GC 4551) (Staphylococcus sp.): 16 µg/mL (≈ 14 µM); MIC Escherichia coli (ATCC 25922) (Escherichia coli): 32 µg/mL (≈ 27.9 µM); MIC Escherichia coli (GC 4559) (Escherichia coli): 32 µg/mL (≈ 27.9 µM); MIC Escherichia coli (GC 4560) (Escherichia coli): 4 µg/mL (≈ 3.49 µM)
2 | CC(c1ccccc1)C1NC(=O)CNC(=O)C(CO)NC(=O)C(C(O)C2CNC(=N)N2C2OC(CO)C(O)C(O)C2O)NC(=O)C(C(O)C2CNC(=N)N2)NC(=O)C(Cc2ccc3oc(SCc4ccc(-c5ccccc5)cc4)nc3c2)NC1=O (stereo not shown) [Example 47] | 4 (≈ 3.35 µM) | 2 (≈ 1.67 µM) | 1 (≈ 0.837 µM) | 2 (≈ 1.67 µM) | 8 (≈ 6.7 µM) | 8 (≈ 6.7 µM) | 4 (≈ 3.35 µM) | 4 (≈ 3.35 µM) | 32 (≈ 26.8 µM) | 32 (≈ 26.8 µM) | 16 (≈ 13.4 µM) | 4 (≈ 3.35 µM) | 64 (≈ 53.6 µM) | 8 (≈ 6.7 µM) | 4 (≈ 3.35 µM) | 2 (≈ 1.67 µM) | 32 (≈ 26.8 µM) | 16 (≈ 13.4 µM) | 32 (≈ 26.8 µM) | 32 (≈ 26.8 µM) | MIC Staphylococcus aureus (GC 3053) (Staphylococcus sp.): 16 µg/mL (≈ 13.4 µM); MIC Staphylococcus aureus (GC 4541) (Staphylococcus sp.): 16 µg/mL (≈ 13.4 µM); MIC Staphylococcus aureus (GC 4542) (Staphylococcus sp.): 16 µg/mL (≈ 13.4 µM); MIC Staphylococcus aureus-SMITH (GC 4543) (Staphylococcus sp.): 8 µg/mL (≈ 6.7 µM); MIC Staphylococcus aureus (GC 4544) (Staphylococcus sp.): 16 µg/mL (≈ 13.4 µM); MIC Staphylococcus aureus (GC 4545) (Staphylococcus sp.): 16 µg/mL (≈ 13.4 µM); MIC Staphylococcus haemolyticus (GC 4546) (Staphylococcus sp.): 8 µg/mL (≈ 6.7 µM); MIC Coagulase Negative Staphylococcus (GC 4547) (Staphylococcus sp.): 16 µg/mL (≈ 13.4 µM); MIC Coagulase Negative Staphylococcus (GC 4548) (Staphylococcus sp.): 2 µg/mL (≈ 1.67 µM); MIC Coagulase Negative Staphylococcus (GC 4549) (Staphylococcus sp.): 0.5 µg/mL (≈ 0.419 µM); MIC Coagulase Negative Staphylococcus (GC 4551) (Staphylococcus sp.): 8 µg/mL (≈ 6.7 µM); MIC Escherichia coli (ATCC 25922) (Escherichia coli): >64 µg/mL; MIC Escherichia coli (GC 4559) (Escherichia coli): >64 µg/mL; MIC Escherichia coli (GC 4560) (Escherichia coli): 32 µg/mL (≈ 26.8 µM)
3 | CC(c1ccccc1)C1NC(=O)CNC(=O)C(CO)NC(=O)C(C(O)C2CNC(=N)N2C2OC(CO)C(O)C(O)C2O)NC(=O)C(C(O)C2CNC(=N)N2)NC(=O)C(Cc2ccc(O)c(N(C)C)c2)NC1=O (stereo not drawn) [Example 12, Cyclo[glycyl-β-methylphenylalanyl-3-(dimethylamino)tyrosyl-3-(2-iminoimidazolidin-4-yl)-seryl-3-(3-hexopyranosyl-2-iminoimidazolidin-4-yl)serylseryl]] | >128 | 128 (≈ 126 µM) | >128 | 128 (≈ 126 µM) | 128 (≈ 126 µM) | >128 | >128 | >128 | >128 | >128 | >128 | >128 | >128 | >128 | >128 | 128 (≈ 126 µM) | >128 | >128 | >128 | >128 | MIC Staphylococcus aureus (GC 3053) (Staphylococcus sp.): >128 µg/mL; MIC Staphylococcus aureus (GC 4541) (Staphylococcus sp.): >128 µg/mL; MIC Staphylococcus aureus (GC 4542) (Staphylococcus sp.): >128 µg/mL; MIC Staphylococcus aureus-SMITH (GC 4543) (Staphylococcus sp.): >128 µg/mL; MIC Staphylococcus aureus (GC 4544) (Staphylococcus sp.): >128 µg/mL; MIC Staphylococcus aureus (GC 4545) (Staphylococcus sp.): >128 µg/mL; MIC Staphylococcus haemolyticus (GC 4546) (Staphylococcus sp.): >128 µg/mL; MIC Coagulase Negative Staphylococcus (GC 4547) (Staphylococcus sp.): >128 µg/mL; MIC Coagulase Negative Staphylococcus (GC 4548) (Staphylococcus sp.): >128 µg/mL; MIC Coagulase Negative Staphylococcus (GC 4549) (Staphylococcus sp.): >128 µg/mL; MIC Coagulase Negative Staphylococcus (GC 4551) (Staphylococcus sp.): >128 µg/mL; MIC Coagulase Negative Staphylococcus (GC 6257) (Staphylococcus sp.; strain GC 6257): >128 µg/mL; MIC Escherichia coli (ATCC 25922) (Escherichia coli): >128 µg/mL; MIC Escherichia coli (GC 4559) (Escherichia coli): >128 µg/mL; MIC Escherichia coli (GC 4560) (Escherichia coli): 128 µg/mL (≈ 126 µM)
